Assay results taken from PMC7006784, “The combination of salvianolic acid A with latamoxef completely protects mice against lethal pneumonia caused by methicillin-resistant Staphylococcus aureus” (Emerging Microbes & Infections, 2020).
Marks after values point to notes of the source that are not given here.

Key:
[1] = system: S. aureus USA300; test: Pneumonia model, bacterial load and histopathology of the lungs; format: in vivo, C57BL/6J mice; details: mice, 1 × 10^9 CFU i.n., 24 h; for viable MRSA loads in the lungs in comparison with the control: s.c. 100 mg/kg Sal A and/or 75 mg/kg latamoxef every 12 h; for pulmonary inflammation (histopathology of the lungs): s.c. 100 mg/kg Sal A and/or 75 mg/kg latamoxef, H&E
Experimental: (§1) The animal experiments were performed using 6- to 8-week-old female C57BL/6J mice obtained from the Experimental Animal Center of Jilin University and conducted according to the guidelines of the Animal Care and Use Committee of Jilin University. The mouse S. aureus pneumonia model was generated as described previously. Briefly, the mice were anaesthetized with ether and inoculated with 30 μl bacterial resuspension via the left nare. The mice were then held upright to allow the bacteria to be inhaled into the lungs. For the survival assessment, groups of 10 mice were challenged with 2 × 10^9 CFU S. aureus. One hour after intranasal inoculation, the mice were subcutaneously injected with 100 mg/kg of Sal A, 75 mg/kg of latamoxef or 100 mg/kg of Sal A plus 75 mg/kg of latamoxef at 12 h intervals, and survival was assessed for 96 h. For the bacterial load, histopathological, and bronchoalveolar lavage fluid (BALF) experiments, mice were inoculated with 1 × 10^9 CFU S. aureus. The mice were then given a subcutaneous injection of 100 mg/kg Sal A, 75 mg/kg latamoxef or a combination of 100 mg/kg Sal A and 75 mg/kg every 12 h. After 24 h, the left lung of each anaesthetized mouse was aseptically excised and homogenized, and the CFU was determined by serial dilutions. The right lungs from each group of mice were excised for histopathological analysis, and the samples were fixed in 10% formalin and stained with haematoxylin and eosin (H&E).

[2] = system: S. aureus USA300; test: Pneumonia model, survival; format: in vivo, C57BL/6J mice; details: mice, 2 × 10^9 CFU i.n.; s.c. 100 mg/kg Sal A and/or 75 mg/kg latamoxef every 12 h, 96 h; PBS control 10%
Experimental: as §1, with “The right lungs from each group of mice were excised for histopathological analysis, and the samples were fixed in 10% formalin and stained with haematoxylin and eosin (H&E).” left out

[3] = target: T1, SrtA (Staphylococcus aureus, UniProt Q2FV99); test: Biolayer interferometry assay; format: binding, S. aureus
T1 construct: The gene encoding SrtA (lacking the N-terminal transmembrane domain (N1–59)); made in house
Experimental: The kinetics of the binding of Sal A to SrtA were determined by a biolayer interferometry (BLI) assay using the Octet RED96 system (ForteBio, Inc., Menlo Park, CA) as described previously. Ni-NTA sensors were used to bind the His-tag SrtA protein. The assay buffer used was PBS containing 0.1% bovine serum albumin and 0.02% Tween-20, pH 6.5. Before the assay was performed, the Ni-NTA sensors were pre-wetted in assay buffer for 10 min, and then the Ni-NTA sensors were flushed with buffer for 60 s to generate the baseline. SrtA was immobilized on the surface of the sensor tip by incubating it in […] protein solution for 3600 s. The excess protein was removed by washing the sensor with buffer for 300 s. Subsequently, the sensor was exposed to a cycle of 60 s for the baseline step, 200 s for the association step and 100 s for the dissociation step in different concentrations of Sal A solution (250, 125, 62.5, 31.25 and 15.625 μM). The binding of the sensor to protein without the loading of Sal A served as a control. The data were processed using the double reference subtraction method in Forte Bio analysis software (v6.4).

[4] = system: T2, A104L-SrtA; test: Fluorescence quenching assay, A104L-SrtA; format: binding, S. aureus; details: fluorescence spectroscopy quenching
T2 construct: The gene encoding SrtA (lacking the N-terminal transmembrane domain (N1–59)); 6xHis (N); made in house
Experimental: (§2) The fluorescence quenching assay was performed as previously described. Briefly, purified SrtA and mutant protein were diluted to 500 ng/ml with PBS. A total of 2.5 ml diluted protein solution was mixed with Sal A at different concentrations ranging from 0 to 4.5 μg. After incubation for 10 min, the fluorescence spectra of the mixed solutions were measured using a fluorescence spectrophotometer (RF5301, Japan). For the fluorescence measurement, the excitation and emission slits were set at 5.0 nm, the excitation wavelength was set at 280 nm, and fluorescence emission spectra in the range of 290–500 nm were scanned; the fluorescence intensity at 340 nm was recorded. All assays were performed in triplicate.

[5] = system: S. aureus protein A (SpA); test: Flow cytometry of FITC-IgG-stained S. aureus (SpA anchoring); format: cell-based; details: untreated WT 108.58
Experimental: To quantify the effect of the Sal A on the anchoring of SpA, the FITC-IgG-stained S. aureus was measured by flow cytometry. S. aureus strains were grown overnight and then were diluted 1:100 in BHI broth with or without Sal A and grown until the OD600 reached 1.0. Then, bacteria were harvested by centrifugation at 2,500 × g for 10 min. The collected pellets were washed once with PBS and were incubated in PBS solution containing 0.2% BSA (wt/vol) for 10 min. Afterward, bacteria were washed thrice and then suspended in PBS containing FITC-labelled rabbit anti-goat-IgG at a dilution of 1:50 and incubated at 37°C in the dark for 60 min. After a thorough washing, bacteria were fixed with formaldehyde (2%, vol/vol) for 10 min at room temperature. Fluorescence signal was detected on a FACSCanto flow cytometer (Becton Dickinson, USA) and analyzed using FACSDiva software.

[6] = system: S. aureus protein A (SpA); test: SpA-related fluorescence analysis (confocal microscopy); format: cell-based; details: 256 μg/ml, FITC-labelled IgG
Experimental: An overnight culture of S. aureus was diluted 1:100 in BHI broth with or without Sal A and grown until the OD600 reached 1.0. After centrifugation at 2,500 × g for 10 min, the bacterial pellets were fixed with 4% formaldehyde solution for 30 min. After washing three times with PBS, 5% BSA was added for blocking, and the bacteria were incubated for 20 min. Then, the bacteria were rinsed with PBS and resuspended in PBS containing FITC-labelled rabbit anti-goat-IgG (Sigma) at a dilution of 1:50 and incubated at 37°C for 3 h. After washing three times with PBS, the bacteria were placed onto poly-lysine-coated glass slides, and the SpA on the cell surface was visualized by confocal microscopy (Zeiss, LSM 880).

[7] = system: A549 cells; test: Invasion assay (internalization of S. aureus into A549 cells); format: cell-based; details: CFU count
Experimental: The assay of the internalization of S. aureus into A549 cells was performed as described. Briefly, 3 × 10^5 A549 cells were plated in each well of a 24-well plate and incubated at 37°C in 5% CO2 for 12 h. S. aureus was grown in BHI broth with or without Sal A to an OD600 of 1.0. Then, the bacterial suspension was added to the plate and incubated for 1 h. The bacterial suspension was discarded, and the A549 cells were washed three times with PBS and treated with DMEM containing 300 μg/ml gentamycin. After incubation for 2 h, the plates were washed three times, and the cells were lysed with sterile distilled water. The lysates were diluted 100-fold in PBS and spread onto BHI agar plates in triplicate. The plates were incubated at 37°C for 12 h, and the number of colony-forming unit (CFU) was determined by manual counting.

[8] = system: SrtA; test: Western blot of SrtA expression; format: cell-based, S. aureus; details: 256, 128, 64, or 32 μg/ml, Western blot with grayscale analysis
Experimental: The dissolved cell wall proteins and cytoplasmic membranes were obtained according to a previously reported method. Equal volumes of protein extract were separated using a 12% SDS-PAGE gel, and the proteins were transferred onto polyvinylidine difluoride membranes (Wako Pure Chemical Industries, Ltd., Osaka, Japan). After blotting, the membrane was blocked with 5% BSA for 2 h and probed with primary antibodies against S. aureus SrtA overnight at 4°C. Next, the membrane was washed and incubated with HRP-labelled goat anti-rabbit IgG. After washing again with PBS, the immunoreactive bands were visualized by an ECL Western blot detection system (GE Healthcare, UK). The primary antibodies against S. aureus SrtA were produced in-house by our team members. The secondary HRP-labelled goat anti-rabbit IgG antibody was obtained from Proteintech (Chicago, USA).

[9] = target: T1, SrtA; test: Reversible inhibition assay of SrtA; format: biochemical, S. aureus; details: after incubation at 10 × IC50 and dilution
Experimental: To evaluate the reversible inhibition by Sal A of SrtA, 100 μl of purified SrtA was incubated with Sal A at a final concentration equal to 10-fold the IC50 for 1 h at 37°C. Then, 9.9 ml reaction buffer was added. Subsequently, 10 μl of the substrate peptide was added to the 190 μl diluted mixture at a final concentration of 10 μM. The fluorescence intensity was measured using a microplate reader at λex = 350 nm and λem = 495 nm. Triplicate measurements were obtained for each data point, and the data are reported as the mean ± SEM.

[10] = system: T3, R197A-SrtA; test: Fluorescence quenching assay, R197A-SrtA; format: binding, S. aureus; details: fluorescence spectroscopy quenching
T3 construct: The gene encoding SrtA (lacking the N-terminal transmembrane domain (N1–59)); 6xHis (N); made in house
Experimental: as §2

[11] = system: S. aureus; test: Anti-S. aureus activity (MIC by broth microdilution, growth curve); format: cell-based
Experimental: The minimum inhibitory concentration (MIC) of Sal A was determined by broth microdilution according to the NCCLS guidelines. Briefly, overnight cultures of S. aureus were diluted 1:100 with fresh Brain Heart Infusion (BHI) medium supplemented with or without 256 μg/ml Sal A and grown at 37°C with shaking. Absorbance readings were obtained at OD600 at different time intervals.

[12] = system: adhesion of S. aureus to fibrinogen; test: Fibrinogen binding assay; format: cell-based; details: bovine fibrinogen coated plate, crystal violet
Experimental: Overnight cultures of S. aureus were subcultured into fresh medium with or without Sal A and then grown until the OD600 reached 0.5. Then, 100 μl of the bacterial culture was transferred into each well of a polystyrene 96-well plate coated with 20 μg/ml bovine fibrinogen and incubated for 2 h at 37°C. The cell suspension was discarded, and the wells were rinsed twice with PBS. Then, 25% formaldehyde was added and incubated for 30 min, and the plate was washed three times and stained with crystal violet dye (12.5 g/l). The binding of S. aureus to fibrinogen was quantitated as described previously. The data are presented as the mean ± SEM from three separate experiments.

[13] = system: T4, A92L-SrtA; test: Fluorescence quenching assay, A92L-SrtA; format: binding, S. aureus; details: fluorescence spectroscopy quenching
T4 construct: The gene encoding SrtA (lacking the N-terminal transmembrane domain (N1–59)); 6xHis (N); made in house
Experimental: as §2

[14] = system: T5, WT-SrtA; test: Fluorescence quenching assay, WT-SrtA; format: binding, S. aureus
T5 construct: The gene encoding SrtA (lacking the N-terminal transmembrane domain (N1–59)); 6xHis (N); made in house
Experimental: as §2

[15] = system: T6, I182A-SrtA; test: Fluorescence quenching assay, I182A-SrtA; format: binding, S. aureus; details: fluorescence spectroscopy quenching
T6 construct: The gene encoding SrtA (lacking the N-terminal transmembrane domain (N1–59)); 6xHis (N); made in house
Experimental: as §2

[16] = system: TNF-α, IL-6, IL-1β; test: Pneumonia model, cytokines in BALF (ELISA); format: in vivo, C57BL/6J mice; details: mice, 1 × 10^9 CFU i.n.; 100 mg/kg s.c.; 24 h after infection
Experimental: For the determinations of the levels of TNF-α, IL-6, IL-1β, 24 h after inoculation with bacteria, the lungs of anaesthetized mice were lavaged with a tracheal cannula according to a procedure described previously. The lavage samples were centrifuged for 10 min at 500 × g and 4°C. The supernatant was collected, and the amounts of cytokines were quantified using commercial enzyme-linked immunosorbent assay (ELISA) kits (eBioscience, San Diego, CA) according to the manufacturer’s protocols. All animal experiments were replicated at least twice, with essentially identical results.

[17] = system: S. aureus biofilm; test: Biofilm formation assay; format: cell-based; details: Staphylococcus aureus, 18 h, read-out: inhibition of biofilm formation compared with the untreated group
Experimental: Overnight cultures of S. aureus were diluted 1:100 in BHI media with or without Sal A to an OD600 of 0.6. Then, 5 µl of the bacterial culture was added to 195 µl BHI media with or without Sal A in a 96-well plate. The plate was incubated at 37°C for 18 h to form a biofilm, which was then quantitated as described previously.

[18] = target: T1, SrtA; test: SrtA activity assay (FRET); format: biochemical, S. aureus
Experimental: The SrtA activity assay was performed by using FRET as described previously. Briefly, a mixture of 4 μM recombinant SrtA and different concentrations of Sal A in a 300 μl reaction volume (50 mM Tris·HCl, 150 mM NaCl and 5 mM CaCl2, pH 7.5) was incubated for 1 h at 37°C. Then, 10 μM substrate peptide was added and incubated for an additional hour. Wells containing all constituents except SrtA served as blank controls. The fluorescence was measured with a microplate reader at λex = 350 nm and λem = 495 nm.

T1 sequence (Q2FV99 60-206): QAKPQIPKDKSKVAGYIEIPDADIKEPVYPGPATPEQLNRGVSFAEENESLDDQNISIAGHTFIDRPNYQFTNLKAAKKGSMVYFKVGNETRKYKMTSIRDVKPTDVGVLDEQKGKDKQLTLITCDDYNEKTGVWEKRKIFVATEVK

## CO[C@@]1(NC(=O)C(C(=O)O)c2ccc(O)cc2)C(=O)N2C(C(=O)O)=C(CSc3nnnn3C)CO[C@@H]21 (some centres unmarked) [latamoxef]
[1]
  viable MRSA loads in the lungs in comparison with the control: significantly decreased
  pulmonary inflammation (histopathology of the lungs): alleviated
[2]
  survival rate: 50%

## O=C(/C=C/c1ccc(O)c(O)c1/C=C/c1ccc(O)c(O)c1)O[C@H](Cc1ccc(O)c(O)c1)C(=O)O [Sal A, (2R)-3-(3,4-Dihydroxyphenyl)-2-[(E)-3-[2-[(E)-2-(3,4-dihydroxyphenyl)ethenyl]-3,4-dihydroxyphenyl]prop-2-enoyl]oxypropanoic acid]
[3]
  Kd: 21.5 µM
  koff: 0.0138 s⁻¹
  kon: 582 M⁻¹ s⁻¹
[4]
  KA: 2.62 (1 × 10^4) l/mol
[1]
  viable MRSA loads in the lungs in comparison with the control: significantly decreased
  pulmonary inflammation (histopathology of the lungs): alleviated
[5]
  mean value of fluorescence yield (Marker: All): 13.64
[6]
  level of green fluorescence (SpA on surface) compared with the WT group: considerably reduced
[7]
  number of bacteria entering the cells compared to the control group: significant reduction
[8]
  expression of SrtA: did not impact the expression
[9]
  SrtA activity recovered in comparison with the control group: 88 ± 3.21%
[10]
  KA: 2.22 (1 × 10^4) l/mol
[11]; 40-fold the IC50 (up to 200 μM), growth curve with 256 μg/ml
  growth of S. aureus: did not inhibit the growth
[11]; Staphylococcus aureus, broth microdilution
  MIC: > 1020 µg/mL
[12]
  adhesion of S. aureus to fibrinogen: inhibited the adhesion of S. aureus to fibrinogen in a dose-dependent manner
[13]
  KA: 3.78 (1 × 10^4) l/mol
[14]; fluorescence quenching, WT SrtA
  KA: 58000 L/mol
[14]; fluorescence spectroscopy quenching, WT-SrtA
  KA: 5.8 (1 × 10^4) l/mol
[15]
  KA: 1.03 (1 × 10^4) l/mol
[2]
  survival rate: 80%
[16]
  levels of TNF-α, IL-6, and IL-1β in the BALF compared with the control group: significantly downregulated
[17]
  inhibition at 256 µg/mL: 33.1%
[18]
  IC50: 11.6 µM
